The text below walks through data of ChEMBL document CHEMBL1121764, “Synthesis of some novel amodiaquine analogues as potential antimalarial and antifilarial compounds” (J Med Chem, 1981).

Data set [1] concerns breinlia booliati. In words: Time taken for In vitro anti-filarial activity to immobilize breinlia booliati (Microfilaria). Type of data set: functional.
Data set [2] is filed under the species Mus musculus. Nature of the data set: Minimum effective dose which on 5th day reduced the mean infection level to one-fiftieth of the control. Type of data set: functional.
For data set [3], the species on record is Mus musculus. Nature of the data set: Lethal dose that killed mice in 48 hr. It counts as toxicity, organism-based. The following applies: in vivo.
Data set [4] has as its system breinlia booliati. Nature of the data set: Time taken for In vitro anti-filarial activity to immobilize breinlia booliati (adult worms). It counts as functional.
Data set [5] is described as follows: Ratio of activity of quinine versus compound against Plasmodium berghei in mice. Type of data set: functional.
The species named for data set [6] is Mus musculus. In words: Minimum effective dose which on 5th day reduced the mean infection level to one-fiftieth of the control; No activity observed at a dose range of 0.05-2.0 mg (HCl) per 20 g.

Turning to `CCN(Cc1cc(Nc2ccnc3cc(Cl)ccc23)ccc1OC)C(=O)N1CCN(C)CC1`, the TIME in the data set on breinlia booliati [1] and with breinlia booliati [4] was 3 h each time. In addition, the MED in the data set listed under Mus musculus [2] is reported as 0.43 (mg of base) 20g-1. The molecule also returned an LD app in the data set listed under Mus musculus [3] of 0.63 mM/kg. Besides, the Ratio in data set [5] is on record as 2.8.

Take `CN1CCN(C(=O)NCc2cc(Nc3ccnc4cc(Cl)ccc34)ccc2O)CC1`: the results for the TIME in the data set on breinlia booliati [1] and in the data set on breinlia booliati [4] were 7 h and 5 h, respectively. In addition, the MED in the data set listed under Mus musculus [2] is 0.043 (mg of base) 20g-1. In the data set filed under Mus musculus [3], this molecule yielded an LD app of 0.66 mM/kg. For the same molecule, the Ratio in data set [5] is reported as 28.4.

On to `CCN(CC)C(=O)N1CCN(Cc2cc(Nc3ccnc4cc(Cl)ccc34)ccc2OC)CC1`, for which the TIME with breinlia booliati [1] came to 6 h; in the data set on breinlia booliati [4], 3 h. Moreover, in the data set filed under Mus musculus [2], the MED is given as 0.43 (mg of base) 20g-1. This molecule also displayed an LD app in the data set listed under Mus musculus [3] of 0.41 mM/kg. Also, the Ratio in data set [5] amounted to 2.8.

In the case of `CCN(CC)Cc1cc(Nc2ccnc3cc(Cl)ccc23)ccc1O.Cl`, the TIME with breinlia booliati [1] and in the data set on breinlia booliati [4] was 3 h each time. Moreover, the MED in the data set listed under Mus musculus [2] was 0.077 (mg of base) 20g-1. The LD app in the data set listed under Mus musculus [3] is 0.32 mM/kg. For the same molecule, the Ratio in data set [5] is on record as 15.8.

As to `COc1ccc(Nc2ccnc3cc(Cl)ccc23)cc1CNC(=O)N1CCN(C)CC1`, the TIME with breinlia booliati [1] is 7 h; in the data set on breinlia booliati [4], 5 h. Besides, the MED in the data set listed under Mus musculus [2] is on record as 0.43 (mg of base) 20g-1. Moreover, the LD app in the data set listed under Mus musculus [3] was 0.68 mM/kg. In data set [5], the Ratio came out at 2.8.

For `CCN(CC)C(=O)N(CC)Cc1cc(Nc2ccnc3cc(Cl)ccc23)ccc1OC`, the TIME in the data set on breinlia booliati [1] and in the data set on breinlia booliati [4] was 8 h in each case. Moreover, in the data set filed under Mus musculus [6], the MED result was “No activity”.

Take `CCN(CC)C(=O)NCc1cc(Nc2ccnc3cc(Cl)ccc23)ccc1O`: the TIME in the data set on breinlia booliati [1] and with breinlia booliati [4] was 8 h throughout. Moreover, the MED entry in the data set listed under Mus musculus [6] was “No activity”.

For `CCN(CC)C(=O)N1CCN(C)CC1` [DIETHYLCARBAMAZINE], the TIME in the data set on breinlia booliati [1] is 4 h; in the data set with breinlia booliati [4], 2 h. The same molecule showed an LD app in the data set listed under Mus musculus [3] of 1.34 mM/kg.

As to `CCN(CC)C(=O)NCc1cc(Nc2ccnc3cc(Cl)ccc23)ccc1OC`, the TIME with breinlia booliati [1] and in the data set on breinlia booliati [4] was 8 h throughout. In addition, in the data set filed under Mus musculus [6], the MED entry is “No activity”.

In the case of `CCN(Cc1cc(Nc2ccnc3cc(Cl)ccc23)ccc1O)C(=O)N1CCN(C)CC1`, the TIME in the data set on breinlia booliati [1] and in the data set on breinlia booliati [4] was 3 h in each case. In addition, the MED in the data set listed under Mus musculus [2] is 0.21 (mg of base) 20g-1. Besides, in the data set listed under Mus musculus [3], the LD app amounted to 0.76 mM/kg. Also, in data set [5], the Ratio is 5.8.

On to `CCN(CC)C(=O)N(CC)Cc1cc(Nc2ccnc3cc(Cl)ccc23)ccc1O`, for which the TIME in the data set on breinlia booliati [1] and with breinlia booliati [4] was 8 h throughout. The MED result in the data set filed under Mus musculus [6] is “No activity”.

On to `CCN(CC)C(=O)N1CCN(Cc2cc(Nc3ccnc4cc(Cl)ccc34)ccc2O)CC1`, for which the results for the TIME in the data set on breinlia booliati [1] and with breinlia booliati [4] were 6 h and 3 h, respectively. For the same molecule, the MED in the data set filed under Mus musculus [2] is given as 0.43 (mg of base) 20g-1. Moreover, the LD app in the data set listed under Mus musculus [3] amounted to 0.37 mM/kg. Besides, the Ratio in data set [5] is given as 2.8.
